# According to publication PMC11106739, “Discovery and Derivatization of Tridecaptin Antibiotics with Altered Host Specificity and Enhanced Bioactivity” (ACS Chemical Biology, 2024):
# Where a SMILES comes first, the peptide text is derived from it. [ ]: non-standard residue; d: D form. The star is where a group is joined. d(aIle) = CC[C@H](C)[C@@H](N)C(=O)O; dDab = NCC[C@@H](N)C(=O)O; Octanoyl = CCCCCCCC(=O)*; Dab = NCC[C@H](N)C(=O)O
# Tests used:
# [1] = test system: S. aureus 1126387; assay type: cell-based, Staphylococcus aureus; conditions: 1126387, 20 h
# Protocol: (§1) All minimum inhibitory concentrations (MICs) were determined according to the Clinical and Standards Laboratory Institute (CLSI) guidelines. In brief, agar plates were inoculated from glycerol stocks and incubated overnight at 35 °C. Peptide DMSO stocks were dispensed into 96-well round-bottom plates using a TECAN D300e dispenser. Colistin sulfate (Sigma-Aldrich) was dissolved in water and serially diluted in a cation-adjusted Mueller Hinton broth (10 μL per well). Final concentrations of the test compounds were 0.06 to 64 μg/mL. Inocula were prepared by direct colony suspension in NaCl at 0.5 MacFarland, which was further diluted 200-fold in cation-adjusted Mueller Hinton broth for a target inoculum of 2 × 10^5 colony forming units (CFUs)/mL. 100 μL portion of the prepared inoculum was added to each well of the prepared plates containing the test compounds. Plates were sealed with parafilm and incubated for 20 h at 35 °C. Images of all plates were recorded, and MIC was assessed visually.
# [2] = test system: S. aureus ATCC 29213; assay type: cell-based, Staphylococcus aureus; conditions: ATCC 29213, 20 h
# Protocol: as §1
# [3] = test system: S. aureus UAMS-1625; assay type: cell-based, Staphylococcus aureus; conditions: S. aureus UAMS-1625 (BV18); CLSI broth dilution, cation-adjusted Mueller Hinton broth, 20 h, 35 °C, read visually
# Protocol: as §1
# [4] = test system: ATCC 25922; assay type: cell-based, Enterococcus faecalis; conditions: ATCC 25922, 20 h
# Protocol: as §1
# [5] = test system: E. faecalis ATCC 29212; assay type: cell-based, Enterococcus faecalis; conditions: ATCC 29212, 20 h
# Protocol: as §1
# [6] = test system: E. faecium ATCC 51559; assay type: cell-based, Enterococcus faecium; conditions: ATCC 51559, 20 h
# Protocol: as §1
# [7] = test system: E. faecium IHMA 890472; assay type: cell-based, Enterococcus faecium; conditions: IHMA 890472, 20 h
# Protocol: as §1
# [8] = test system: A. baumannii ATCC 17978; assay type: cell-based, Acinetobacter baumannii; conditions: ATCC 17978, 20 h
# Protocol: as §1
# [9] = test system: A. baumannii HUMC1; assay type: cell-based, Acinetobacter baumannii; conditions: HUMC1, 20 h
# Protocol: as §1
# [10] = test system: A. baumannii IHMA 777621; assay type: cell-based, Acinetobacter baumannii; conditions: IHMA 777621, 20 h
# Protocol: as §1
# [11] = test system: E. coli 1214245; assay type: cell-based, Escherichia coli; conditions: 1214245, 20 h
# Protocol: as §1
# [12] = test system: E. coli 1220120; assay type: cell-based, Escherichia coli; conditions: 1220120, 20 h
# Protocol: as §1
# [13] = test system: E. coli ATCC 25922; assay type: cell-based, Escherichia coli; conditions: ATCC 25922, 20 h
# Protocol: as §1
# [14] = test system: K. pneumoniae 1227947; assay type: cell-based, Klebsiella pneumoniae; conditions: 1227947, 20 h
# Protocol: as §1
# [15] = test system: K. pneumoniae 1228586; assay type: cell-based, Klebsiella pneumoniae; conditions: 1228586, 20 h
# Protocol: as §1
# [16] = test system: K. pneumoniae ATCC 13883; assay type: cell-based, Klebsiella pneumoniae; conditions: ATCC 13883, 20 h
# Protocol: as §1
# [17] = test system: P. aeruginosa 1218019; assay type: cell-based, Pseudomonas aeruginosa; conditions: 1218019, 20 h
# Protocol: as §1
# [18] = test system: P. aeruginosa 1226072; assay type: cell-based, Pseudomonas aeruginosa; conditions: 1226072, 20 h
# Protocol: as §1
# [19] = test system: P. aeruginosa PAO1; assay type: cell-based, Pseudomonas aeruginosa; conditions: PAO1, 20 h
# Protocol: as §1
# [20] = test system: Rabbit red blood cells; assay: Hemolysis assay; assay type: cell-based; conditions: rabbit red blood cells in PBS, 37 °C, 1 h, absorbance at 405 nm, normalization to the Triton X-100 control; 0.25 to 128 μg/mL tested
# Protocol: Peptides, dissolved in DMSO, were dispensed into 96-well round-bottom microplates using a TECAN D300e dispenser and subsequently diluted with 100 μL of PBS. PBS or 2% Triton X-100 was used as negative and positive controls, respectively. Rabbit red blood cells (BioConcept) were diluted in PBS to a final concentration of 2%, and 100 μL was added to each well of the prepared 96-well plates. The final concentration of the test compounds was 0.25 to 128 μg/mL. Plates were incubated at 37 °C for 1 h and afterward subjected to centrifugation at 1000g for 5 min. Then, 30 μL of supernatant was transferred to a new round-bottom plate, and absorbance was measured at 405 nm (TECAN Infinite F200). EC50s were calculated after blank subtraction and normalization to the Triton control.
SMILES,MIC [1] [µg/mL],MIC [2] [µg/mL],MIC [3] [µg/mL],MIC [4] [µg/mL],MIC [5] [µg/mL],MIC [6] [µg/mL],MIC [7] [µg/mL],MIC [8] [µg/mL],MIC [9] [µg/mL],MIC [10] [µg/mL],MIC [11] [µg/mL],MIC [12] [µg/mL],MIC [13] [µg/mL],MIC [14] [µg/mL],MIC [15] [µg/mL],MIC [16] [µg/mL],MIC [17] [µg/mL],MIC [18] [µg/mL],MIC [19] [µg/mL],Hemolysis EC50 [20] [µg/mL]
CCCCCCCC(=O)N[C@@H](C(=O)N[C@H](CCN)C(=O)NCC(=O)N[C@H](CO)C(=O)N[C@H](Cc1c[nH]c2ccccc12)C(=O)N[C@@H](CO)C(=O)N[C@@H](CCN)C(=O)N[C@H](CCN)C(=O)N[C@H](C(=O)N[C@@H](CCC(=O)O)C(=O)N[C@H](C(=O)N[C@@H](C(=O)N[C@@H](C)C(=O)O)[C@@H](C)CC)C(C)C)[C@@H](C)CC)C(C)C [Oct-Ile9] (Octanoyl-[dV][dDab]G[dS][dW]S[Dab][dDab]IEV[d(aIle)]A-OH),>64,64,>64,64,64,64,32,16,16,16,2,2,2,4,4,2,16,16,64,>128
CCCCCCCC(=O)N[C@@H](C(=O)N[C@H](CCN)C(=O)NCC(=O)N[C@H](CO)C(=O)N[C@H](Cc1c[nH]c2ccccc12)C(=O)N[C@@H](CO)C(=O)N[C@@H](CCN)C(=O)N[C@H](CCN)C(=O)N[C@@H](Cc1ccc(O)cc1)C(=O)N[C@@H](CCC(=O)O)C(=O)N[C@H](C(=O)N[C@@H](C(=O)N[C@@H](C)C(=O)O)[C@@H](C)CC)C(C)C)C(C)C [Oct-Tyr9] (Octanoyl-[dV][dDab]G[dS][dW]S[Dab][dDab]YEV[d(aIle)]A-OH),>64,>64,>64,64,64,64,32,32,32,32,2,4,2,4,4,4,4,4,64,
